Test results from publication PMC4559079 (Journal of Hematology & Oncology, 2015).
Several values for one entry are separate records, joined by “and”; a condition that tells them apart may be missing. Identical values can stand only once. Entries after “also recorded” stand apart in the source; their conditions may differ. Like-named read-outs stand apart in the source and are kept apart here.

Key:
[1] = ixazomib with lenalidomide and dexamethasone; Western patients with NDMM; cited from earlier work
[2] = set-up: method as in PMID 25377318; settings: Western patients, cited from earlier work
[3] = set-up: method as in PMID 24904120, PMID 25456369; settings: Western patients, pooled from three studies, single agent or with lenalidomide–dexamethasone, cited from earlier work
[4] = Plasma PK of ixazomib given with lenalidomide–dexamethasone, phase 1 study in East Asian patients with RRMM (LC/MS/MS, non-compartmental analysis); format: in vivo, human; settings: for Accumulation ratio: day 15 AUC0–168/day 1 AUC0–168; for DN AUC0–168 / DN C max: dose-normalized; for Tmax / half-life / Cmax / AUC(0-t): human, plasma; for AUC(0-t): read-out: AUC0–168
Protocol: Plasma PK parameters were calculated for patients in the safety population following administration of ixazomib on cycle 1 day 1 and/or cycle 1 day 15 provided sufficient concentration–time data were available, the patient had received the protocol-specified ixazomib dosing regimen during cycle 1, and no excluded concomitant medications were received during the PK sampling period. PK parameters were estimated using non-compartmental analysis methods from the ixazomib concentration versus time data. The analyses were performed using Phoenix WinNonlin version 6.2 (Pharsight, Princeton, NJ). PK parameters were summarized, as appropriate, using descriptive statistics. DN AUC data in East Asian patients were compared with data for Western patients, pooled from three phase 1/2 trials of patients with RRMM (NCT00963820), NDMM (NCT01217957), and relapsed/refractory AL amyloidosis (NCT01318902).

[5] = cycle 1 day 1, Chinese, geometric mean (% CV)
[6] = cycle 1 day 1, Korean, geometric mean (% CV)
[7] = cycle 1 day 1, Other, geometric mean (% CV)
[8] = cycle 1 day 15, Chinese, geometric mean (% CV)
[9] = cycle 1 day 15, Korean, geometric mean (% CV)
[10] = cycle 1 day 15, Other, geometric mean (% CV)
[11] = po, cycle 1 day 1, Chinese, geometric mean (% CV), 4.0 mg oral + lenalidomide–dexamethasone
[12] = po, cycle 1 day 1, Korean, geometric mean (% CV), 4.0 mg oral + lenalidomide–dexamethasone
[13] = po, cycle 1 day 1, Other, geometric mean (% CV), 4.0 mg oral + lenalidomide–dexamethasone
[14] = po, cycle 1 day 1, Overall, geometric mean (% CV), 4.0 mg oral + lenalidomide–dexamethasone
[15] = po, cycle 1 day 15, Chinese, geometric mean (% CV), 4.0 mg oral + lenalidomide–dexamethasone
[16] = po, cycle 1 day 15, Korean, geometric mean (% CV), 4.0 mg oral + lenalidomide–dexamethasone
[17] = po, cycle 1 day 15, Other, geometric mean (% CV), 4.0 mg oral + lenalidomide–dexamethasone
[18] = po, cycle 1 day 15, Overall, geometric mean (% CV), 4.0 mg oral + lenalidomide–dexamethasone

Compound: CC(C)C[C@H](NC(=O)CNC(=O)c1cc(Cl)ccc1Cl)B(O)O [ixazomib]
- recommended phase 2/3 dose (RP2/3D) [1]: 4.0 mg
- MTD [2]: 2.97 mg/m^2
- MTD, equated to fixed dose ([2]; equates to 2.97 mg/m^2): 5.5 mg
- DLT-evaluable patients experiencing DLTs (cycle 1, 4.0 mg ixazomib with lenalidomide–dexamethasone): 2 of 24
- dose-limiting toxicities in the first six patients (starting dose 4.0 mg ixazomib, cycle 1, with lenalidomide–dexamethasone): No dose-limiting toxicities; also recorded: no DLTs
- recommended phase 2/3 dose (RP2/3D) (weekly oral ixazomib with lenalidomide–dexamethasone, East Asian patients with RRMM): 4.0 mg
- geometric mean DN AUC0–168 ([3]; day 1 of dosing): 152 [95 % CV] ng*h/mL/mg
- geometric mean DN AUC0–168 ([3]; day 15): 269 [44 % CV] ng*h/mL/mg
- difference in geometric mean DN AUC0–168, East Asian vs Western patients (higher) ([4]; day 1 of dosing, 194 vs 152 ng*h/mL/mg): 28%
- difference in geometric mean DN AUC0–168, East Asian vs Western patients (higher) ([4]; day 15, 401 vs 269 ng*h/mL/mg): 49%
- Accumulation ratio ([4]; Chinese, geometric mean (% CV)): 2.38 (30)
- Accumulation ratio ([4]; Korean, geometric mean (% CV)): 2.34 (40)
- Accumulation ratio ([4]; Other, geometric mean (% CV)): 2.56 (33)
- DN AUC0–168 [4, 5]: 233 (83) h*ng/mL/mg
- DN C max [4, 5]: 12.6 (102) ng/mL/mg
- DN AUC0–168 [4, 6]: 157 (47) h*ng/mL/mg
- DN C max [4, 6]: 5.53 (99) ng/mL/mg
- DN AUC0–168 [4, 7]: 180 (63) h*ng/mL/mg
- DN C max [4, 7]: 8.93 (118) ng/mL/mg
- DN AUC0–168 ([4]; cycle 1 day 1, Overall East Asian, geometric mean (% CV)): 194 [78 % CV] h*ng/mL/mg and 194 (78) h*ng/mL/mg
- DN C max ([4]; cycle 1 day 1, Overall, geometric mean (% CV)): 8.45 (115) ng/mL/mg
- DN AUC0–168 [4, 8]: 438 (39) h*ng/mL/mg
- DN C max [4, 8]: 12.6 (71) ng/mL/mg
- DN AUC0–168 [4, 9]: 362 (49) h*ng/mL/mg
- DN C max [4, 9]: 9.51 (67) ng/mL/mg
- DN AUC0–168 [4, 10]: 383 (81) h*ng/mL/mg
- DN C max [4, 10]: 10.6 (97) ng/mL/mg
- DN AUC0–168 ([4]; cycle 1 day 15, Overall East Asian, geometric mean (% CV)): 401 [48 % CV] h*ng/mL/mg and 401 (48) h*ng/mL/mg
- DN C max ([4]; cycle 1 day 15, Overall, geometric mean (% CV)): 11.0 (72) ng/mL/mg
- Tmax ([4]; oral, days 1 and 15 of cycle 1, East Asian patients, with lenalidomide–dexamethasone, read-out: median time to maximum plasma concentration): 1.5 to 2 h
- half-life ([4]; oral, geometric mean, after multiple dosing, overall East Asian patients, read-out: terminal half-life (converted)): 146 h
- half-life ([4]; oral, terminal disposition phase, cycle 1 day 15, Chinese, geometric mean (% CV), read-out: t1/2 (converted)): 148 h
- half-life ([4]; oral, terminal disposition phase, cycle 1 day 15, Korean, geometric mean (% CV), read-out: t1/2 (converted)): 145 h
- half-life ([4]; oral, terminal disposition phase, cycle 1 day 15, Other, geometric mean (% CV), read-out: t1/2 (converted)): 148 h
- half-life ([4]; oral, terminal disposition phase, cycle 1 day 15, Overall, geometric mean (% CV), read-out: t1/2 (converted)): 147 h
- Cmax [4, 11]: 50.6 ng/mL
- AUC(0-t) [4, 11]: 933 ng·h/mL
- Tmax ([4]; po, cycle 1 day 1, Chinese, median (range), 4.0 mg oral + lenalidomide–dexamethasone, read-out: T max): 1.04 h
- Cmax [4, 12]: 22.1 ng/mL
- AUC(0-t) [4, 12]: 630 ng·h/mL
- Tmax ([4]; po, cycle 1 day 1, Korean, median (range), 4.0 mg oral + lenalidomide–dexamethasone, read-out: T max): 1.95 h
- Cmax [4, 13]: 35.7 ng/mL
- AUC(0-t) [4, 13]: 720 ng·h/mL
- Tmax ([4]; po, cycle 1 day 1, Other, median (range), 4.0 mg oral + lenalidomide–dexamethasone, read-out: T max): 1.75 h
- Cmax [4, 14]: 33.8 ng/mL
- AUC(0-t) [4, 14]: 776 ng·h/mL
- Tmax ([4]; po, cycle 1 day 1, Overall, median (range), 4.0 mg oral + lenalidomide–dexamethasone, read-out: T max): 1.5 h
- Cmax [4, 15]: 50.3 ng/mL
- AUC(0-t) [4, 15]: 1750 ng·h/mL
- Tmax ([4]; po, cycle 1 day 15, Chinese, median (range), 4.0 mg oral + lenalidomide–dexamethasone, read-out: T max): 2 h
- Cmax [4, 16]: 38 ng/mL
- AUC(0-t) [4, 16]: 1450 ng·h/mL
- Tmax ([4]; po, cycle 1 day 15, Korean, median (range), 4.0 mg oral + lenalidomide–dexamethasone, read-out: T max): 2 h
- Cmax [4, 17]: 42.4 ng/mL
- AUC(0-t) [4, 17]: 1530 ng·h/mL
- Tmax ([4]; po, cycle 1 day 15, Other, median (range), 4.0 mg oral + lenalidomide–dexamethasone, read-out: T max): 1.25 h
- Cmax [4, 18]: 43.9 ng/mL
- AUC(0-t) [4, 18]: 1610 ng·h/mL
- Tmax ([4]; po, cycle 1 day 15, Overall, median (range), 4.0 mg oral + lenalidomide–dexamethasone, read-out: T max): 2 h
